# Molecular target: T1, FBXL10 (Homo sapiens, UniProt Q8NHM5)
# T1 construct: purchased BPS Bioscience 50120
# T1 sequence (Q8NHM5 1-650): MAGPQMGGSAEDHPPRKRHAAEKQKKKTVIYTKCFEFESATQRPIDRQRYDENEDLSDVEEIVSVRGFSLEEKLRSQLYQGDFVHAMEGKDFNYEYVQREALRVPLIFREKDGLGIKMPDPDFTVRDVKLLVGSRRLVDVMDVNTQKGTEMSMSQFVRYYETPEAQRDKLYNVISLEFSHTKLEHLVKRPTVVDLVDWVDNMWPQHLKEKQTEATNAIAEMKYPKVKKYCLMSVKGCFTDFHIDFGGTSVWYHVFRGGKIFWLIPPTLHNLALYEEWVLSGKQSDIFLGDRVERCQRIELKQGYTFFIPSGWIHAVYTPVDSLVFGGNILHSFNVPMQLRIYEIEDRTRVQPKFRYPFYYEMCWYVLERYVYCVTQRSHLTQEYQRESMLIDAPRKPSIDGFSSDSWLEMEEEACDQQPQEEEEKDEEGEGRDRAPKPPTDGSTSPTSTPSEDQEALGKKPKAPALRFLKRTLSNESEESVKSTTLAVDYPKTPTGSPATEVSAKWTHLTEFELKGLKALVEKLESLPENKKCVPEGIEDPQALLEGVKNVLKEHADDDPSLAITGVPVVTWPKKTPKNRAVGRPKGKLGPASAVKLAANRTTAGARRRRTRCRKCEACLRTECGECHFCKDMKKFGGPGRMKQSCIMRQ
# Test: FBXL10 in vitro enzyme inhibition assay (AlphaScreen)
# Type: biochemical
# Details: Table 5
# Text: This assay determines the ability of a test compound to inhibit FBXL11, FBXL10, and PHF8 demethylase activity. Baculovirus expressed FBXL11 (GenBank Accession #NM_012308, AA1-1162) was purchased from BPS Bioscience (Cat#50102). Baculovirus expressed FBXL10 (GenBank Accession #NM_032590, AA 1-650) was purchased from BPS Bioscience (Cat #50120). Baculovirus expressed PHF8 (GenBank Accession NP_055922.1) was purchased from Active Motif (Cat#31435).
# The ability of test compounds to inhibit the activity of FBXL10 was determined in 384-well plate format under the following reaction conditions: 0.3 nM FBXL10, 30 nM H3K36me2-biotin labeled peptide (Anaspec cat # 64442), 0.2 µM alpha-ketoglutaric acid in assay buffer of 50 mM HEPES, pH7.3, 0.005% Brij35, 0.5 mM TCEP, 0.2 mg/ml BSA, 50 µM sodium L-ascorbate, 5 µM ammonium iron(II) sulfate. Reaction product is determined quantitatively by AlphaScreen detection after the addition of detection reagents anti-H3K36me1 antibody, AlphaScreen® Streptavidin-coated Donor beads, and AlphaScreen® Protein A Acceptor beads in 50 mM HEPES, pH7.3, 10 mM NaCl, 0.005% Brij35, 5 mM EDTA, 2 mg/ml BSA to final 10 µg/ml beads.
# The assay reaction was initiated by the following: 3 µl of the mixture of 90 nM H3K36me2-biotin labeled peptide and 0.6 µM alpha-ketoglutaric acid with 3 µl of 11-point serial diluted inhibitor in 3% DMSO are added to each well of 384 well Proxiplate (Perkin Elmer), followed by the addition of 3 µl of 0.9 nM FBXL10 to initiate the reaction. The reaction mixture is incubated at room temperature for 1 hour, and terminated by the addition of 3 µl of appropriate dilution of anti H3K36me1 antibody in 50 mM HEPES, pH7.3, 10 mM NaCl, 0.005% Brij35, 5 mM EDTA, 2 mg/ml BSA. Plates will then incubated at room temperature for 40 minutes, followed by addition of 3 µl of 50 µg/ml AlphaScreen® Streptavidin-coated Donor beads and AlphaScreen® Protein A Acceptor beads in 50 mM HEPES, pH7.3, 10 mM NaCl, 0.005% Brij35, 5 mM EDTA, 2 mg/ml BSA. Plates will then be read by EnVision Multilabel Reader in AlphaScreen mode after minimum 2 hour incubation at room temperature. The AlphaScreen signal for each well is used to determine inhibition constant (IC50).
row,SMILES,IC50 [µM]
1,"FC(F)(F)c1ccc(CCn2cnc(-c3cc(-c4nn[nH]c4C(F)(F)F)ccn3)c2)cc1 [Example 94, 4-[5-(trifluoromethyl)-1H-1,2,3-triazol-4-yl]-2-(1-{2-[4-(trifluoromethyl)phenyl]ethyl}-1H-imidazol-4-yl)pyridine]",0.1 to 1
2,"FC(F)(F)c1[nH]nnc1-c1ccnc(-c2cn(CC3CCc4ccccc43)cn2)c1 (stereo not shown) [Example 83, 2-{1-[(2,3-dihydro-1H-inden-1-yl)methyl]-1H-imidazol-4-yl}-4-[5-(trifluoromethyl)-1H-1,2,3-triazol-4-yl]pyridine]",0.1 to 1
3,"CC(C)(C)c1ccc(CCn2cnc(-c3cc(-c4nn[nH]c4C(F)(F)F)ccn3)c2)cc1 [Example 96, 2-{1-[2-(4-tert-butylphenyl)ethyl]-1H-imidazol-4-yl}-4-[5-(trifluoromethyl)-1H-1,2,3-triazol-4-yl]pyridine]",0.1 to 1
4,"COc1cccc2c1C(Cn1cnc(-c3cc(-c4nn[nH]c4C(F)(F)F)ccn3)c1)CCC2 (stereo not shown) [Example 107, 2-{1-[(8-methoxy-1,2,3,4-tetrahydronaphthalen-1-yl)methyl]-1H-imidazol-4-yl}-4-[5-(trifluoromethyl)-1H-1,2,3-triazol-4-yl]pyridine]",0.1 to 1
5,"Fc1ccc2c(c1)C(Cn1cnc(-c3cc(-c4nn[nH]c4C(F)(F)F)ccn3)c1)CCC2 (stereo not shown) [Example 101, 2-{1-[(7-fluoro-1,2,3,4-tetrahydronaphthalen-1-yl)methyl]-1H-imidazol-4-yl}-4-[5-(trifluoromethyl)-1H-1,2,3-triazol-4-yl]pyridine]",0.1 to 1
6,"Fc1cccc2c1CCCC2Cn1cnc(-c2cc(-c3nn[nH]c3C(F)(F)F)ccn2)c1 (stereo not shown) [Example 99, 2-{1-[(5-fluoro-1,2,3,4-tetrahydronaphthalen-1-yl)methyl]-1H-imidazol-4-yl}-4-[5-(trifluoromethyl)-1H-1,2,3-triazol-4-yl]pyridine]",0.1 to 1
7,"Cc1ccc(CCn2cnc(-c3cc(-c4nn[nH]c4C(F)(F)F)ccn3)c2)cc1 [Example 91, 2-{1-[2-(4-methylphenyl)ethyl]-1H-imidazol-4-yl}-4-[5-(trifluoromethyl)-1H-1,2,3-triazol-4-yl]pyridine]",≤ 0.1
8,"Fc1ccccc1Cn1cnc(-c2cc(-c3nn[nH]c3C(F)(F)F)ccn2)c1 [Example 62, 2-{1-[(2-fluoroprtenyl)methyl]-1H-imidazol-4-yl}-4-[5-(trifluoromethyl)-1H-1,2,3-triazol-4-yl]pyridine]",≤ 0.1
9,"Cc1ccc2c(c1)C(Cn1cnc(-c3cc(-c4nn[nH]c4C(F)(F)F)ccn3)c1)CCC2 (stereo not shown) [Example 103, 2-{1-[(7-methyl-1,2,3,4-tetrahydronaphthalen-1-yl)methyl]-1H-imidazol-4-yl}-4-[5-(trifluoromethyl)-1H-1,2,3-triazol-4-yl]pyridine]",0.1 to 1
10,"O=C(c1ccccc1)N1CCC[C@H](n2cnc(-c3cc(-c4nn[nH]c4C(F)(F)F)ccn3)c2)C1 [Example 90, 2-{1-[(3S)-1-benzoylpiperidin-3-yl]-1H-imidazol-4-yl}-4-[5-(trifluoromethyl)-1H-1,2,3-triazol-4-yl]pyridine]",≤ 0.1
11,"FC(F)(F)c1ccccc1CCn1cnc(-c2cc(-c3nn[nH]c3C(F)(F)F)ccn2)c1 [Example 60, 4-[5-(trifluoromethyl)-1H-1,2,3-triazol-4-yl]-2-(1-{2-[2-(trifluoromethyl)phenyl]ethyl}-1H-imidazol-4-yl)pyridine]",0.1 to 1
12,"Cc1cc(F)ccc1Cn1cnc(-c2cc(-c3nn[nH]c3C(F)(F)F)ccn2)c1 [Example 70, 2-{1-[(4-fluoro-2-methylphenyl)methyl]-1H-imidazol-4-yl}-4-[5-(trifluoromethyl)-1H-1,2,3-triazol-4-yl]pyridine]",≤ 0.1
13,"Fc1ccc(F)c(CCn2cnc(-c3cc(-c4nn[nH]c4C(F)(F)F)ccn3)c2)c1 [Example 88, 2-{1-[2-(2,5-difluorophenyl)ethyl]-1H-imidazol-4-yl}-4-[5-(trifluoromethyl)-1H-1,2,3-triazol-4-yl]pyridine]",≤ 0.1
14,"Fc1ccc(Cn2cnc(-c3cc(-c4nn[nH]c4C(F)(F)F)ccn3)c2)c(F)c1 [Example 68, 2-{1-[(2,4-difluorophenyl)methyl]-1H-imidazol-4-yl}-4-[5-(trifluoromethyl)-1H-1,2,3-triazol-4-yl]pyridine]",≤ 0.1
15,"COc1ccc(Cn2cnc(-c3cc(-c4nn[nH]c4C(F)(F)F)ccn3)c2)cc1 [Example 67, 2-{1-[(4-methoxyphenyl)methyl]-1H-imidazol-4-yl}-4-[5-(trifluoromethyl)-1H-1,2,3-triazol-4-yl]pyridine]",≤ 0.1

# The remaining lines, values ahead:
row,IC50 [µM],SMILES
1,≤ 0.1,"O=C(c1ccccc1)N1CCC[C@@H](n2cnc(-c3cc(-c4nn[nH]c4C(F)(F)F)ccn3)c2)C1 [Example 89, 2-{1-[(3R)-1-benzoylpiperidin-3-yl]-1H-imidazol-4-yl}-4-[5-(trifluoromethyl)-1H-1,2,3-triazol-4-yl]pyridine]"
2,≤ 0.1,"Cc1ccc(Cn2cnc(-c3cc(-c4nn[nH]c4C(F)(F)F)ccn3)c2)c(F)c1 [Example 71, 2-{1-[(2-fluoro-4-methylphenyl)methyl]-1H-imidazol-4-yl}-4-[5-(trifluoromethyl)-1H-1,2,3-triazol-4-yl]pyridine]"
3,≤ 0.1,"FC(F)(F)c1[nH]nnc1-c1ccnc(-c2cn(Cc3ccccc3Cl)cn2)c1 [Example 64, 2-{1-[(2-chlorophenyl)methyl]-1H-imidazol-4-yl}-4-[5-(trifluoromethyl)-1H-1,2,3-triazol-4-yl]pyridine]"
4,≤ 0.1,"Fc1ccc(Cn2cnc(-c3cc(-c4nn[nH]c4C(F)(F)F)ccn3)c2)cc1 [Example 61, 2-{1-[(4-fluorophenyl)methyl]-1H-imidazol-4-yl}-4-[5-(trifluoromethyl)-1H-1,2,3-triazol-4-yl]pyridine]"
5,≤ 0.1,"CC(c1ccccc1)n1cnc(-c2cc(-c3nn[nH]c3C(F)(F)F)ccn2)c1 (stereo not shown) [Example 73, 2-[1-(1-phenylethyl)-1H-imidazol-4-yl]-4-[5-(trifluoromethyl)-1H-1,2,3-triazol-4-yl]pyridine]"
6,≤ 0.1,"Fc1ccc(CCn2cnc(-c3cc(-c4nn[nH]c4C(F)(F)F)ccn3)c2)c(F)c1 [Example 86, 2-{1-[2-(2,4-difluorophenyl)ethyl]-1H-imidazol-4-yl}-4-[5-(trifluoromethyl)-1H-1,2,3-triazol-4-yl]pyridine]"
7,≤ 0.1,"Fc1cccc(F)c1Cn1cnc(-c2cc(-c3nn[nH]c3C(F)(F)F)ccn2)c1 [Example 69, 2-{1-[(2,6-difluorophenyl)methyl]-1H-imidazol-4-yl}-4-[5-(trifluoromethyl)-1H-1,2,3-triazol-4-yl]pyridine]"
8,≤ 0.1,"Fc1cccc(CCn2cnc(-c3cc(-c4nn[nH]c4C(F)(F)F)ccn3)c2)c1 [Example 78, 2-{1-[2-(3-fluorophenyl)ethyl]-1H-imidazol-4-yl}-4-[5-(trifluoromethyl)-1H-1,2,3-triazol-4-yl]pyridine]"
9,≤ 0.1,"COc1ccc(CCn2cnc(-c3cc(-c4nn[nH]c4C(F)(F)F)ccn3)c2)cc1 [Example 93, 2-{1-[2-(4-methoxyphenyl)ethyl]-1H-imidazol-4-yl}-4-[5-(trifluoromethyl)-1H-1,2,3-triazol-4-yl]pyridine]"
10,≤ 0.1,"Fc1ccccc1CCn1cnc(-c2cc(-c3nn[nH]c3C(F)(F)F)ccn2)c1 [Example 84, 2-{1-[2-(2-fluorophenyl)ethyl]-1H-imidazol-4-yl}-4-[5-(trifluoromethyl)-1H-1,2,3-triazol-4-yl]pyridine]"
